# Paper PMC4519333, “Preclinical Evaluation of a Potential GSH Ester Based PET/SPECT Imaging Probe DT(GSHMe)2 to Detect Gamma Glutamyl Transferase Over Expressing Tumors” (PLoS ONE, 2015)
# Read-outs that look alike come from different tables or passages of the source.
# Key:
# [1] = test system: cell lines; assay: MTT assay (cytotoxicity); assay type: cell-based
# Procedure: To confirm the results from SRB assay, MTT assay which measures cell metabolic activity was performed to correlate the results obtained using SRB assay. Exponentially growing cells were plated in a 96 well microtitre plate at a cell density of 4000 cells per well 24 h before treatment. Cells were treated with varying concentrations of the drug for different time intervals (24, 48, and 72 h). At the end of treatment, both the treated cells and untreated control were incubated with MTT at final concentration of 0.1mg/mL for 3 h at 37°C and the medium was removed thereafter. Cells from each treatment were lysed and the formazan crystals were dissolved using 150 μL of DMSO for 30 min. Optical density of extracts at 570 nm was measured (reference filter: 630 nm). Surviving fraction was determined and was plotted against concentration as a function of time.
# [2] = test system: cell lines; assay: Sulfo rhodamine B (SRB) assay (cytotoxicity); assay type: cell-based
# Procedure: SRB assay was performed to estimate the cytotoxicity of DT(GSHMe)2. SRB binds to total protein content of the cells and is independent of metabolic activity. Cells were seeded at the density of 6000 cells per well in 96 well microtiter plate. Cells were treated with varying concentration of DT(GSHMe)2 from 0.001 μM-1000 μM for different time intervals (24, 48 and 72 h). At each time point, 100 μL of ice cold 10% (wt/vol) trichloroacetic acid (TCA) was added to each well and were incubated for 1 h at 4°C followed by washing the plate four times under running tap water. Plates were then air dried and 100 μL of 0.057% SRB solution was added in each well for 30 min. Plates were quickly rinsed four times with 1% (v/v) acetic acid and air dried. To develop color, 200 μL of 10 mM Tris base solution (pH 10.5) was added to each well and kept on gyratory shaker for 5 min. The color intensity was measured fluorometrically at excitation 488 nm and emission at 585 nm. Surviving fraction was calculated and plotted for the concentration range 0.001 μM-1000 μM as a function of time.
# [3] = test system: BMG-1 cells; assay: Cell cycle analysis by flow cytometry (PI); assay type: cell-based, human
# Procedure: 10^5 cells per well were plated in a Petri dishes and kept in the incubator overnight at 37°C. Following day, cells were treated with different drug concentrations (0.01 μM –1000 μM). At specific time points, media was carefully removed and cells were harvested in micro centrifuge tubes. Cells were centrifuged at 1200 rpm for 6 min. Supernatant was removed and 700 μL of 80% cold ethanol was added drop wise. Pellet was uniformly dispersed and samples were stored at 4°C for at least 24 h. Samples were centrifuged to remove supernatant and RNAse at a final concentration of 0.5 mg/mL was added to the pellet and incubated at 37°C for 1 h. Finally Propidium Iodide (PI) solution at a final concentration of 10μg/mL was added and the samples were analyzed by flow cytometry.
# [4] = In vivo total glutathione estimation from tumor, RBC and plasma; parameters: species or system BALB/c mice bearing EA tumors; details: n = 3
# Procedure: Levels of total Glutathione (GSH/GSSG) were estimated from tumor, RBC and plasma isolated from BALB/c mice bearing EA tumors, after injection of unlabeled 100 μM DT(GSHMe)2 (100 μL). At time points (15 min, 30 min, 1, 2and 4 h), blood samples were withdrawn and tumors were excised. Tumors were homogenized in 3 volumes of 5% sulfosalicylic acid (SSA) and centrifuged at 10,000 x g for 10 min at 4°C. Blood was centrifuged and the plasma fraction was separated from RBC pellet. To each RBC and plasma fractions, equal volume of 5% SSA was added, followed by vortexing and centrifugation at 10,000 x g for 10 min at 4°C. Supernatant was collected and used for estimating total glutathione levels.
# [5] = Log P calculation (octanol/PBS partition); assay type: physicochemical
# Procedure: The value of partition coefficient of radiolabeled […] calculated and expressed as log P. The radiolabeled […] passed through 0.22 μ filter and approximately 10.2 ± 1.5 MBq of labeled compound was diluted in PBS, pH 7.4. To this equal volume of 1-octanol was added. The mixture was thoroughly vortexed for 10 min and then centrifuged at 5000 rpm for 5 min. […] The measurement was repeated thrice. The partition coefficient (P) was calculated using the following equation wherein, P = (counts in octanol fraction) / (counts in PBS fraction). For each value of P, log P value is calculated.
# [6] = molecular target: T1, GGT on the surface of EAT cells (Mus musculus, UniProt Q60928); assay: Cell binding studies on EAT cells (Scatchard); parameters: species or system mice; details: 2 h, 37°C, Scatchard plot
# T1 construct: endogenous in cells; host or cells: Ehrlich Ascites tumor (EAT) cells, strain F-3, passaged in BALB/c mice
# T1 sequence (Q60928 1-379 limits assumed): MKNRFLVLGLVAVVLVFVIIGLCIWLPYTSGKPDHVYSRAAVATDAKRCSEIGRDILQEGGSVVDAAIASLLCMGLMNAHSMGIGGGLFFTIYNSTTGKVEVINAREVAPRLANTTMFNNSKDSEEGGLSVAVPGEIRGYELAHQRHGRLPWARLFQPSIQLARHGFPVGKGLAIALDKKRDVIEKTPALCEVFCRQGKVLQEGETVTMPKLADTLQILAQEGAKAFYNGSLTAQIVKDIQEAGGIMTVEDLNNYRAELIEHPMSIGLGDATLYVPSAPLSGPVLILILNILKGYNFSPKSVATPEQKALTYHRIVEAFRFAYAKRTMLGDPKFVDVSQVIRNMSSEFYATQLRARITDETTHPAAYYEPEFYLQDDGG
# T1 sequence (Q60928 380-568 limits assumed): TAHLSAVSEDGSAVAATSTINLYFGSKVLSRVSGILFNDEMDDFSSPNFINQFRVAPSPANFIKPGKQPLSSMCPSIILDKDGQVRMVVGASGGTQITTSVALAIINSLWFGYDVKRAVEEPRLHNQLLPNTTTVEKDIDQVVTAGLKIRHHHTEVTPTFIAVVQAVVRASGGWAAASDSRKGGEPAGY
# Procedure: (§1) The specificity of ^99[…])2 to bind externally on tumor cells were examined by receptor binding assays on EAT cells isolated from the ascitic fluid of BALB/c Mice. Cells were diluted to 2 x 10^6 cells per mL and were aliquoted in different micro centrifuge tubes. Cells were washed twice with HBSS and finally resuspended in 1 mL of HBSS. Cells were then treated with various concentration of ^99[…]) for 2 h at 37°C. […] Specific binding was obtained by subtracting nonspecific binding from total binding. At the end of each incubation time, the cells were washed with cold PBS twice and pelleted down. Finally, cells were lysed and cell-associated radioactivity was determined by gamma counting. The total protein content of cells was estimated by Bicinchoninic acid (BCA) method. Similarly the binding experiments were performed on monolayer of BMG-1 cells (2 x 10^6) and were treated with ^99[…]) for 2 h at 37°C. […] Cells were lysed and cell associated radioactivity was determined. The total protein content was determined by BCA method. Scatchard Plot were plotted to determine Kd and Bmax.
# [7] = molecular target: T2, GGT on the surface of BMG-1 cells (Homo sapiens, UniProt P19440); assay: Cell binding studies on BMG-1 cells (Scatchard); details: 2 h, 37°C, Scatchard plot
# T2 construct: endogenous in cells; host or cells: BMG-1 cerebral glioma cells (monolayer)
# T2 sequence (P19440 1-380 limits assumed): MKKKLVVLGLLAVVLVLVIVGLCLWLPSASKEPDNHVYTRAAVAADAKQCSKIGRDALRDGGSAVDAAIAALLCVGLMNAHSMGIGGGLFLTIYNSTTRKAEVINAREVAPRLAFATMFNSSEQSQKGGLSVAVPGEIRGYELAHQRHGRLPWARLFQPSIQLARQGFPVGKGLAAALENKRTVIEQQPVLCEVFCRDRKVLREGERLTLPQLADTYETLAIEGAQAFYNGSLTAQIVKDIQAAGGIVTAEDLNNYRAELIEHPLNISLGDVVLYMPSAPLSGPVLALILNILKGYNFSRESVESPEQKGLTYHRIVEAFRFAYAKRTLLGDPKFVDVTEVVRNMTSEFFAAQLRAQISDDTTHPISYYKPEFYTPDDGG
# T2 sequence (P19440 381-569 limits assumed): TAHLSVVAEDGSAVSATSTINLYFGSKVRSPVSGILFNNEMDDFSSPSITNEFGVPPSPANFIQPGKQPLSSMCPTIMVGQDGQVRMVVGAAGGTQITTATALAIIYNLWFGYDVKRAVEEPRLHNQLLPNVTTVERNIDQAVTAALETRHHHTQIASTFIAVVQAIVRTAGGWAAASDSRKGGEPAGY
# Procedure: as §1
# [8] = test system: EAT cells; assay: Time course and kinetics of uptake; assay type: cell-based, mice
# Procedure: EAT cells were isolated from ascitic fluid of BALB/c mice and were diluted to 3 x 10^6 cells/mL. Cells were aliquoted in different micro centrifuge tubes and were treated with 200 μM of ^99mTc-DT(GSHMe)2 for different time intervals (0, 10, 30 sec, 1, 2, 5, 10, 30 min, 1 and 2 h). After the treatment, cells were centrifuged at 2000 rpm for 5 min and supernatant was carefully removed. Followed by three washes of cold saline and acidic wash buffer, cells were centrifuged to yield the pellet. The pellet was dissolved in 500 μL of lysis buffer. The amount of radioactivity (CPM) in cell lysate was determined by gamma counter. Later, after the activity decayed, total protein from the cells was estimated by BCA method of protein estimation. Absorbance values were determined at 595 nm on a multi plate reader. A standard plot was constructed taking various dilutions of BSA. Drug uptake was calculated and plotted.
# [9] = in vivo; parameters: species or system mice; details: BALB/c, mouse, iv, 0.25 mg/kg body weight, total radioactivity
# Procedure: Radiolabeled ^99mTc-DT(GSHMe)2 (0.25 mg/Kg body weight) in a volume of 150 μL (11.1 ± 1.2 MBq) was carefully injected through the tail vein of each BALB/c mice xenografted with EAT Tumors in the hind limb. At 30 min, 1, 2 and 4 h post injection mice were sacrificed and different organs and tissues were dissected out. All the organs and tissues were rinsed in saline, weighed and counted in a gamma counter. Uptake of the radiotracer in each tissue was calculated and expressed as a percentage injected dose per gram of the tissue (% ID/g) and corrected for ^99mTc decay.
# [10] = parameters: species or system mice; details: mouse, in vivo, iv
# Procedure: Blood clearance was performed to observe the rate of clearance of drug post administration. Radiolabeled conjugate 0.25 mg/Kg body weight of ^99mTc-DT(GSHMe)2 (22.2 ± 2.8 MBq) was administered intravenously through the tail vein of the mice. Blood samples were withdrawn at different time intervals (5, 15, 30 min, 1, 2 and 24 h). Decay corrected radioactivity is expressed as % ID, assuming a weight based theoretical blood volume as 7% of the body weight.
# [11] = test system: BALB/c mice bearing EAT tumor and turpentine oil inflammation; assay: SPECT imaging, tumor versus inflammation; assay type: in vivo; details: 2 h post i.v., EAT tumor hind limb, inflammation fore limb
# Procedure: (§2) Athymic male mice were xenografted with BMG-1 human tumor cell line (0.1 mL of cell suspension containing ~5 ×10^6 BMG cells) in the flank region of the hind limb. BALB/c mice were inoculated with EAT murine tumor cells (5–6 × 10^6) in the flank region of the right hind limb. An inflammation lesion was induced in the fore limb by intramuscular injection of turpentine oil (100 μL) 48 h before imaging. For Scintigraphy, (n = 6) mice used for imaging, biodistribution studies (n = 32 mice) for two experiments 4 mice/group for 4 time points and blood kinetics (n = 18).
# (§3) Xenografted experimental models were intravenously administered 0.1mg/Kg body weight ^68Ga-DT(GSHMe)2 (37 ± 2.2 MBq) and 0.25 mg/Kg Body weight ^99mTc-DT(GSHMe)2 (29.6 ± 1.8 MBq) via tail vein for PET and SPECT respectively. Blocking dose of ~ 5 mg/Kg body weight of GSH was administered intravenously in the experimental animal. The acquisition was performed 2 h post injection. The ratios were calculated from counts per pixel of individual ROI (Region of interest) for semi-quantitative analysis to understand the distribution and localization.
# [12] = in vivo; parameters: species or system mice; details: BALB/c, mouse, iv, 0.1 mg/kg body weight, total radioactivity
# Procedure: Biodistribution studies were also performed on tumor bearing BALB/c mice. 0.1 mg/Kg body weight ^68Ga-DT(GSHMe)2 (~25 ± 1.5 MBq) was injected through tail vein and at different time points viz., 30 min, 1 and 2 h animals were sacrificed and organs were dissected out. Uptake of radioactivity in individual organ is noted and %ID/g is then calculated.
# [13] = test system: athymic mice bearing BMG-1 tumors; assay: Micro PET/CT small animal imaging with ROI analysis; assay type: in vivo; details: blocking dose ~5 mg/Kg native GSH, PET 2 h post injection, BMG-1 tumor
# Procedure: as §2, §3
# [14] = 0.25 h after injection of 100 μM unlabeled compound
structure (smiles),measurement,setting,value
"CCOC(=O)CNC(=O)[C@H](CS)NC(=O)CC[C@H](NC(=O)CN(CCN(CCN(CC(=O)O)CC(=O)N[C@@H](CCC(=O)N[C@@H](CS)C(=O)NCC(=O)OCC)C(=O)O)CC(=O)O)CC(=O)O)C(=O)O [DT(GSHMe)2, Diethylene triaminpentaacetic acid bis glutathione monoethylester]",toxicity on cell lines,"[1]; 100 μM concentration, in vitro evaluations on cell lines",minimal toxicity
same,toxicity,"[1]; MTT, lower concentration (below 100 μM), 24-72 h",nontoxic
same,cell population remained viable,"[2]; 1000 μM, 72 h",11.57 ± 3.84%
same,IC50,"[2]; cell line not stated, read-out: IC50 (nearly 50% cell lysis)",~500 µM
same,toxicity,[2]; lower concentration (below 100 μM),nontoxic
same,G1 cell population,"[3]; BMG-1, 1 μM, 24 h",83.2 ± 4.16%
same,G1 cell population,"[3]; BMG-1, 1000 μM, 24 h",49.5 ± 2.47%
same,increase of apoptotic cells versus control,"[3]; BMG-1, 1000 μM, 24 h",approximately 14 folds
same,apoptotic cells,"[3]; BMG-1, 1000 μM, 24 h treatment",23.4 ± 1.17%
same,Plasma total glutathione,[4]; [14],0.13 ± 0.029 μmoles of GSH/ml
same,RBC total glutathione,[4]; [14],0.38 ± 0.021 μmoles of GSH/ml
same,Tumor total glutathione,[4]; [14],3 ± 0.007 μmoles of GSH/g tissue weight
same,Plasma total glutathione,[4]; 0.5 h after injection,0.16 ± 0.028 μmoles of GSH/ml
same,RBC total glutathione,[4]; 0.5 h after injection,0.39 ± 0.026 μmoles of GSH/ml
same,Tumor total glutathione,[4]; 0.5 h after injection,4.3 ± 0.019 μmoles of GSH/g tissue weight
same,Plasma total glutathione,[4]; 1 h after injection,0.28 ± 0.127 μmoles of GSH/ml
same,RBC total glutathione,[4]; 1 h after injection,0.45 ± 0.010 μmoles of GSH/ml
same,Tumor total glutathione,[4]; 1 h after injection,4.5 ± 0.070 μmoles of GSH/g tissue weight
same,Plasma total glutathione,[4]; 2 h after injection,0.32 ± 0.155 μmoles of GSH/ml
same,RBC total glutathione,[4]; 2 h after injection,0.5 ± 0.11 μmoles of GSH/ml
same,Tumor total glutathione,[4]; 2 h after injection,4.9 ± 0.010 μmoles of GSH/g tissue weight
same,Plasma total glutathione,[4]; 4 h after injection,0.23 ± 0.041 μmoles of GSH/ml
same,RBC total glutathione,[4]; 4 h after injection,0.39 ± 0.001 μmoles of GSH/ml
same,Tumor total glutathione,[4]; 4 h after injection,4.1 ± 0.010 μmoles of GSH/g tissue weight
"CCOC(=O)CNC(=O)[C@H](CS)NC(=O)CC[C@H](NC(=O)CN(CCN(CCN(CC(=O)O)CC(=O)N[C@@H](CCC(=O)N[C@@H](CS)C(=O)NCC(=O)OCC)C(=O)O)CC(=O)O)CC(=O)O)C(=O)O [99mTc-DT(GSHMe)2, metal not drawn]",logD,[5]; pH 7.4,-1.31 ± 0.104
same,Bmax,[6],91.02 nM
same,Bmax,[7],17.2 nM
same,maximal transport rate velocity (Vmax),[8],0.478 µM/min
same,Km,"[8]; Eadie-Hofstee, read-out: Michaelis constant (Km) of transport",2.25 µM
same,tissue to tissue ratio at 2 h,[9],24
same,biological half-life t1/2 (Slow),[10],15.44
same,t1/2 slow,[10],15.44 h
same,biological half-life t1/2 (Fast),[10]; 0.25 mg/kg,8.8 min
same,tracer localisation tumor versus inflammation,[11],substantial amount of radiotracer concentration at tumor site
"CCOC(=O)CNC(=O)[C@H](CS)NC(=O)CC[C@H](NC(=O)CN(CCN(CCN(CC(=O)O)CC(=O)N[C@@H](CCC(=O)N[C@@H](CS)C(=O)NCC(=O)OCC)C(=O)O)CC(=O)O)CC(=O)O)C(=O)O [68Ga-DT(GSHMe)2, metal not drawn]",tissue to tissue ratio at 2 h,[12],26.4
same,block of uptake at tumor site by GSH,[13],95.57%
"N[C@@H](CCC(=O)N[C@@H](CS)C(=O)NCC(=O)O)C(=O)O [glutathione, Glutathione, reference compound]",logD,"[5]; shake-flask 1-octanol/PBS pH 7.4, equal volumes, vortexed 10 min, centrifuged 5000 rpm 5 min, gamma counter, repeated thrice, read-out: Log P",-3.23 ± 0.141
